Assay results reported in patent publication US12624398B2, “Use of long non-coding RNAs in medulloblastoma” (THE JOHNS HOPKINS UNIVERSITY, priority 2019, dated 2026).
l = locked nucleic acid (LNA); d = 2'-deoxy (DNA)

Columns and labels:
lnc-HLX-2-7 [1] = assay: qRT-PCR of lnc-HLX-2-7 expression in MB cells; assay type: cell-based, human
Description: (§1) Cell culture. Cell lines were authenticated using single tandem repeat profiling. D425 Med cells were cultured in DMEM/F12 with 10% serum and 1% glutamate/penicillin/streptomycin. MED211 cells were cultured in medium composed of 30% Ham's F12/70% DMEM, 1% antibiotic antimycotic, […] B27 supplement, 5 μg/mL heparin, 20 ng/mL EGF, and 20 ng/mL FGF2. DAOY cells were cultured in DMEM with 10% serum and 1% glutamate/penicillin/streptomycin. All cells were grown in a humidified incubator at 37° C., 5% CO2. For blocking of BET bromodomain protein in D425 Med and MED211 cells, JQ1 (SML1524-5MG, Sigma Aldrich, St. Louis, MO) was added, and the medium was changed every other day.
(§2) Quantitative real-time PCR (qRT-PCR). Total RNA was purified using the Direct-zol RNA Miniprep kit (Zymo Research, Irvine, CA). To obtain RNA from xenografts, tumor tissues were pulverized and then used for purification.
(§3) ASO-lnc-HLX2-7. Antisense oligonucleotides (ASOs) were designed using the Integrated DNA Technologies (IDT) Antisense Design Tool (IDT, Coralville, IA). ASO knockdowns were performed with 50 nM (final concentration) locked nucleic acid (LNA) GapmeRs transfected with Lipofectamine 3000 (Thermo Fisher Scientific, Waltham, MA). All ASOs were modified with phosphorothioate (PS) linkages. The following ASOs were used: ASO targeting lnc-HLX-2-7 (ASO-lnc-HLX-2-7): +T*+G*+A*G*A*G*A*T*T*A*A*T*C*T*A*G*A*T*+T*+G*+C (SEQ ID NO:240) and control ASO targeting luciferase (ASO-Luc): +T*+C*+G*A*A*G*T*A*C*T*C*A*G*C*G*T*A*A*+G*+T*+T (SEQ ID NO:241). The PS linkages are indicated with * and LNA-modified oligonucleotides are indicated with +.
(§4) siRNA-mediated knockdown of HLX, MYC, and MY CN. siRNAs targeting HLX (catalog no. 4427037, ID: s6639) and MYC (catalog no. 4427037, ID: s9129) were purchased from Thermo Fisher Scientific. siRNAs were transfected at 20 nM for 48 h using Lipofectamine RNAiMAX (Thermo Fisher Scientific). The efficiency was determined by qRT-PCR.

MYC = assay: qRT-PCR of MYC expression in MB cells; assay type: cell-based, human; details: JQ1 100 or 300 nM, relative to DMSO-treated cells
Description: as §1, §2, §4

D425 Med cells [2] = assay: Cell proliferation, living cells counted by trypan blue staining; assay type: cell-based, human
Description: as §1
(§5) Cell proliferation, apoptosis, and 3D colony formation assays. Cells were plated in 96-well plates at 5×10^3 cells per well in triplicate. After 72 hours of ASO or siRNA transfection, living cells were counted by trypan blue staining. Apoptotic cells were analyzed using a GloMax luminometer (Promega, Fitchburg, WI) with conditions optimized for the Caspase-Glo 3/7 Assay. For the 3D colony formation assay, cells were seeded in 24-well plates at a density of 1×10^2 cells/well and were stained with crystal violet solution approximately 14 days later. Colony number was determined using the EVE cell counter (Nano Entek, Pleasanton, CA), and staining intensity was analyzed using ImageJ software.

MED211 cells [3] = assay: as above; assay type: cell-based, human
Description: as §1, §5

lnc-HLX-2-7 [4] = assay: qPCR of lnc-HLX-2-7 and MYC expression in JQ1-treated mouse xenografts; assay type: in vivo, NOD-SCID mice; details: JQ1 50 mg/kg intraperitoneal on alternating days for 14 days vs DMSO
Excerpt: as §2
Medulloblastoma xenografts (intracranial). All mouse studies were approved and performed in accordance with the policies and regulations of the Animal Care and Use Committee of Johns Hopkins University. Intracranial MB xenografts were established by injecting D425 Med cells, MED211 cells, D425 Med cells with lnc-HLX-2-7 deleted, and MED211 cells with lnc-HLX-2-7 deleted into the cerebellums of NOD-SCID mice (Jackson Laboratory, Bar Harbor, ME). Cerebellar coordinates were −2 mm from lambda, +1 mm laterally, and 1.5 mm deep. Seven days after injection, mice were administered JQ1 (50 mg/kg) or vehicle alone (DMSO) on alternating days via intraperitoneal injection for 14 days. Tumor growth was evaluated by weekly bioluminescence imaging using an in vivo spectral imaging system (IVIS Lumina II, Xenogen, Alameda, CA).

[5] = test system: various types of cancer including MB; details: by inhibiting BRD4-mediated regulation of MYC; previous studies; cited from earlier work
HLX = assay: qRT-PCR of HLX expression in MB cells; assay type: cell-based, human; details: ASO 50 nM
Description: as §2, §3, §4

D425 Med cells [6] = assay: Apoptosis, Caspase-Glo 3/7 Assay; assay type: cell-based, human; details: ASO 50 nM, p<0.01
Description: as §5

MED211 cells [7] = assay: Apoptosis, Caspase-Glo 3/7 Assay; assay type: cell-based, human; details: ASO 50 nM, p<0.01
Description: as §5

Compound: Cc1sc2c(c1C)C(c1ccc(Cl)cc1)=N[C@@H](CC(=O)OC(C)(C)C)c1nnc(C)n1-2 [JQ1]
- lnc-HLX-2-7 expression (lnc-HLX-2-7 [1]; D425 Med cells, JQ1 100 or 300 nM, relative to DMSO-treated cells): downregulated
- lnc-HLX-2-7 expression (lnc-HLX-2-7 [1]; MED211 cells, JQ1 100 or 300 nM, relative to DMSO-treated cells): downregulated
- lnc-HLX2-7 expression (summary statement) (lnc-HLX-2-7 [1]; no cell line named at the place): reduced
- MYC expression (MYC; D425 Med cells): downregulated
- MYC expression (MYC; MED211 cells): downregulated
- cell growth (viable cell numbers) (D425 Med cells [2]; D425 Med cells treated with JQ1, relative to DMSO (FIG. 11B), suppressed by lnc-HLX-2-7 overexpression): cell growth inhibition
- cell growth (viable cell numbers) (MED211 cells [3]; MED211 cells treated with JQ1, relative to DMSO (FIG. 11B), suppressed by lnc-HLX-2-7 overexpression): cell growth inhibition
- lnc-HLX2-7 expression in vivo (lnc-HLX-2-7 [4]): downregulation
- cancer cell proliferation [5]: effectively suppresses

Compound: ASO-lnc-HLX-2-7: LNA GapmeR antisense oligonucleotide with phosphorothioate linkages targeting lnc-HLX-2-7: +T*+G*+A*G*A*G*A*T*T*A*A*T*C*T*A*G*A*T*+T*+G*+C (antisense TGAGAGATTAATCTAGATTGC; sugars from the 5' end l3 d15 l3, all phosphorothioate, methylation of C not given here)
- lnc-HLX-2-7 expression (lnc-HLX-2-7 [1]; D425 Med cells, ASO 50 nM, compared to control ASO-luc, p<0.01): significantly decreased
- lnc-HLX-2-7 expression (lnc-HLX-2-7 [1]; MED211 cells, ASO 50 nM, compared to control ASO-luc, p<0.01): significantly decreased
- HLX expression (HLX; D425 Med cells): significantly reduced
- HLX expression (HLX; MED211 cells): significantly reduced
- MB cell growth (viable cell numbers) (D425 Med cells [2]; D425 Med cells, ASO 50 nM, 72 hours after transfection, p<0.01): significantly suppressed
- MB cell growth (viable cell numbers) (MED211 cells [3]; MED211 cells, ASO 50 nM, 72 hours after transfection, p<0.01): significantly suppressed
- apoptosis (apoptotic cell numbers) (D425 Med cells [6]): induced apoptosis
- apoptosis (apoptotic cell numbers) (MED211 cells [7]): induced apoptosis
